SMILES strings stand for the structures.

The target in one assay is human S1P1 (Homo sapiens (Human), UniProt P21453). Description: S1P1 Binding Assay (33P-S1P radioligand competition). Particulars: membranes from CHO cells expressing human S1P1; 0.03 nM 33P-S1P; rounded to two digits. Here is the method: Membranes were prepared from CHO cells expressing human S1P1. Cells pellets (1×10^8cells/pellet) were suspended in buffer containing 20 mM HEPES, pH 7.5, 50 mM NaCl, 2 mM EDTA and Protease Inhibitor cocktail (Roche), and disrupted on ice using the Polytron homogenizer. The homogenate was centrifuged at 20,000 rpm (48,000 g) and the supernatant was discarded. The membrane pellets were resuspended in buffer containing 50 mM HEPES, pH 7.5, 100 mM NaCl, 1 mM MgCl2, 2 mM EDTA and stored in aliquots at −80° C. after protein concentration determination.
human S1P1, sequence (P21453 whole entry): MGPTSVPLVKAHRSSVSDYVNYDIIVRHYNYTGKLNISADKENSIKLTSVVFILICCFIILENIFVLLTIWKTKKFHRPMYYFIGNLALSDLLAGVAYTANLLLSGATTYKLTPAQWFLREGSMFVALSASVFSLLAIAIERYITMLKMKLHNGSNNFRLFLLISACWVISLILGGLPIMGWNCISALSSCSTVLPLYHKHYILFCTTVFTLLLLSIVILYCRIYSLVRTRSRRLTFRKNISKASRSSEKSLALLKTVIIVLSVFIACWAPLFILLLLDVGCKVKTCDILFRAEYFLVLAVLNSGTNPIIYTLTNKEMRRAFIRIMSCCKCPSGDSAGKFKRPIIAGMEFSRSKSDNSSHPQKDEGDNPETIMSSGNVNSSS
Membranes (2 μg/well) and 0.03 nM final concentration of ^33P-S1P ligand (1 mCi/ml, American Radiolabeled Chemicals) diluted in assay buffer (50 mM HEPES, pH7.4, 5 mM MgCl2, 1 mM CaCl2, 0.5% fatty acid free BSA, 1 mM NaF) were added to the compound plates (384 Falcon v-bottom plate (0.5 μl/well in a 11 point, 3-fold dilution). Binding was performed for 45 minutes at room temperature, terminated by collecting the membranes onto 384-well Millipore FB filter plates, and radioactivity was measured by TopCount. The competition data of the test compounds over a range of concentrations was plotted as percentage inhibition of radioligand specific binding. The IC50 is defined as the concentration of competing ligand needed to reduce specific binding by 50%.

Assay [1] deals with S1P1 (membranes from S1P1/CHO cells) (Homo sapiens (Human), UniProt P21453). Description: Receptor [35S] GTPγS Binding Assay, S1P1. Particulars: S1P1/CHO cell membranes; rounded to two digits. The assay is classed as biochemical. Here is the method:
(§1) Receptor [35S] GTPγS Binding Assays
(§2) Compounds were loaded in a 384 Falcon v-bottom plate (0.5 μl/well in a 11 point, 3-fold dilution). Membranes prepared from S1P1/CHO cells or EDG3-Ga15-bla HEK293T cells were added to the compound plate (40 μl/well, final protein 3 μg/well) with multidrop. [^35S]GTP (1250 Ci/mmol, Perkin Elmer) was diluted in assay buffer: 20 mM HEPES, pH7.5, 10 mM MgCl2, 150 mM NaCl, 1 mM EGTA, 1 mM DTT, 10 μM GDP, 0.1% fatty acid free BSA, and 10 μg/ml Saponin to 0.4 nM. 40 μl of the [^35S] GTP solution was added to the compound plate with a final concentration of 0.2 nM. The reaction was kept at room temperature for 45 min. At the end of incubation, all the mixtures in the compound plate were transferred to Millipore 384-well FB filter plates via the Velocity11 Vprep liquid handler. The filter plate was washed with water 4 times by using the manifold Embla plate washer and dried at 60° C. for 45 min. MicroScint 20 scintillation fluid (30 μl) was added to each well for counting on the Packard TopCount. EC50 is defined as the agonist concentration that corresponds to 50% of the Ymax (maximal response) obtained for each individual compound tested. The results in Table B were rounded to two digits.

Assay [2] addresses S1P3 (membranes from EDG3-Ga15-bla HEK293T cells) (Homo sapiens (Human), UniProt Q99500). Description: Receptor [35S] GTPγS Binding Assay, S1P3. The assay is classed as biochemical. The settings on record: EDG3-Ga15-bla HEK293T cell membranes; rounded to two digits. The procedure: as §1, §2
In assay [3] the test system is circulating blood lymphocytes. Description: Blood Lymphocyte Reduction Assay (BLR) in Rodents. Particulars: Lewis rats, oral, versus vehicle (PEG300) group. The assay is classed as in vivo. Here is the method: Blood Lymphocyte Reduction Assay (BLR) in Rodents
Lewis rats were dosed orally with test article (as a solution or suspension in the vehicle) or vehicle alone (polyethylene glycol 300, “PEG300”). Blood was drawn at 4 hr and 24 h by retro-orbital bleeding. Blood lymphocyte counts were determined on an ADVIA 120 Hematology Analyzer (Siemens Healthcare Diagnostics). The results were measured as a reduction in the percentage of circulating lymphocytes as compared to the vehicle treated group at the 4 hr and 24 hr measurement. The results represent the average results of all animals within each treatment group (n=3-4).

S1P3 (membranes from EDG3-Ga15-bla HEK293T cells), sequence (Q99500 whole entry): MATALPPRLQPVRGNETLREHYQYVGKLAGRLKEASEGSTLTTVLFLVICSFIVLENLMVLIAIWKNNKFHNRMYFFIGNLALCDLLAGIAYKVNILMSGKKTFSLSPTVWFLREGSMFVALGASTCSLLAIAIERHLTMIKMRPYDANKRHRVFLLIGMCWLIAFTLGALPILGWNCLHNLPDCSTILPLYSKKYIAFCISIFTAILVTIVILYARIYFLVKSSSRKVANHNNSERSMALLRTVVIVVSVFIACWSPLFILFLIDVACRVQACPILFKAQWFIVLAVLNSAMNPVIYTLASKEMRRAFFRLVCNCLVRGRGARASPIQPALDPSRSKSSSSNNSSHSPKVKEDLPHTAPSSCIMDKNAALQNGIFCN
S1P1 (membranes from S1P1/CHO cells), sequence (P21453 whole entry): as the sequence (P21453 whole entry) above

With `CCCc1ccc(-c2noc3c2COc2cc(CN4CC(C(=O)O)C4)ccc2-3)cc1` [Example 3, 1-((3-(4-Propylphenyl)-4H-chromeno[3,4-d]isoxazol-7-yl)methyl)azetidine-3-carboxylic acid], the IC50 at human S1P1 stood at 1.3 nM. Further, the figures for the EC50 in assay [1] and in assay [2] were 1.3 nM and 1300 nM, respectively. In assay [3] (dose 1.0 mg/kg), the “% Reduction in Lymphocytes at 4 hr.” value is 85%.
For the compound `CC(C)Cc1ccc(-c2onc3c2CCc2cc(CN4CC(C(=O)O)C4)ccc2-3)cc1C(F)(F)F` [Example 23, 1-((3-(4-Isobutyl-3-(trifluoromethyl)phenyl)-4,5-dihydronaphtho[1,2-c]isoxazol-7-yl)methyl)azetidine-3-carboxylic acid], at human S1P1, the IC50 turned out to be 0.98 nM. In addition, the EC50 in assay [1] turned out to be 0.73 nM; in assay [2], 3500 nM. In assay [3] (dose 3.0 mg/kg), the “% Reduction in Lymphocytes at 4 hr.” value stood at 76%.

Values taken from patent US9216972B2, “Tricyclic heterocyclic compounds” (Bristol-Myers Squibb Company, priority 2009, dated 2015).
